Data reported in patent publication US9187472B2 (AbbVie Inc., priority 2012, dated 2015).

Assays:
[1] = target: NAMPT (human, recombinant, C-terminally His-tagged) (Homo sapiens, UniProt P43490); assay: Time-Resolved Fluorescence Resonance Energy Transfer (TR-FRET) Binding Assay of NAMPT; conditions: without substrates; 6.8 nM NAMPT, 200 nM probe, 3 hours equilibration
Summary of the method: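 Read-out is the time-resolved FRET ratio Em520/Em495 (excitation 337 nm) between a terbium anti-His antibody (1 nM) on the enzyme and an Oregon Green 488-labelled nicotinamide-competitive inhibitor probe (200 nM). Enzyme was 6.8 nM, DMSO 2%, pH 7.5 HEPES buffer; 3 h room-temperature equilibration preceded reading.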

NAMPT = NAMPT (Homo sapiens, UniProt P43490); assay: TR-FRET Binding Assay of NAMPT with PRPP; conditions: with 200 μM PRPP and 2.5 mM ATP; 2 nM NAMPT, 2 nM probe, 16 hours equilibration
NAMPT, sequence (P43490 whole entry): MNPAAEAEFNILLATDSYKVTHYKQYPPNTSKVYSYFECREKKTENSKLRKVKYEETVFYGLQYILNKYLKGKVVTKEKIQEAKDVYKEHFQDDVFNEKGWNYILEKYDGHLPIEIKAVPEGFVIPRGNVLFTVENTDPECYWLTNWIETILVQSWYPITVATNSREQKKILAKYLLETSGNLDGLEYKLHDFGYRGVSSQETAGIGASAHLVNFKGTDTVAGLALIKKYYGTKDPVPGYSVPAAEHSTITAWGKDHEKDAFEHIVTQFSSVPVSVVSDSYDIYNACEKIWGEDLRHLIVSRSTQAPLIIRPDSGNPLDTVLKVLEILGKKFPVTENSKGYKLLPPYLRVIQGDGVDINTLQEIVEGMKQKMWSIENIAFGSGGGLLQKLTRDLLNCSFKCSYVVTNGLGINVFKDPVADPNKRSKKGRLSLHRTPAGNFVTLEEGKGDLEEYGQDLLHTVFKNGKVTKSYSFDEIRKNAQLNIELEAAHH
Summary of the method: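 NAMPT 2 nM + probe 2 nM + Tb-anti-His Ab 1 nM; PRPP 200 μM, ATP 2.5 mM, DMSO 2%; 16 h equilibration before TR-FRET read.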

PC3 cells = assay: NAMPT Cell Proliferation Assay; assay type: cell-based; conditions: Homo sapiens, PC-3, 120 h, 5 days incubation, cell viability by Cell Titer Glo
Summary of the method: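 Seed PC3 at 500 cells/well (RPMI, 10% HI-FBS), attach overnight; add compound, 10-fold series 10 μM → 1×10^−5 μM; incubate 5 d, 37° C/5% CO2; luminescent viability readout; fit % inhibition sigmoidally for IC50.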

NAMPT (human, recombinant, C-terminally His-tagged), sequence (P43490 whole entry): as above

Row | SMILES | IC50 [1] [nM] | IC50 (NAMPT) [nM] | IC50 (PC3 cells) [nM]
1 | CCCn1cc(-c2ccc(NC(=O)NCc3ccn4ccnc4c3)cc2)cn1 [Example 487, 1-(imidazo[1,2-a]pyridin-7-ylmethyl)-3-[4-(1-propyl-1H-pyrazol-4-yl)phenyl]urea] | 143 | 0.334 | 83.3
2 | O=C(NCc1ccn2ccnc2c1)c1ccc(C2CCN(C(=O)c3cccs3)C2)cc1 (stereo not drawn) [Example 488, N-(imidazo[1,2-a]pyridin-7-ylmethyl)-4-[1-(thiophen-2-ylcarbonyl)pyrrolidin-3-yl]benzamide] | 138 | 0.544 | 98.3
3 | O=C(NCc1ccn2ccnc2c1)c1ccc(Oc2ccccc2)cc1 [Example 489, N-(imidazo[1,2-a]pyridin-7-ylmethyl)-4-phenoxybenzamide] | 1220 | 0.263 | > 10000
4 | CC(C)C(=O)N1CC(c2ccc(C(=O)NCc3ccn4ccnc4c3)cc2)C1 [Example 490, N-(imidazo[1,2-a]pyridin-7-ylmethyl)-4-[1-(2-methylpropanoyl)azetidin-3-yl]benzamide] | 753 | 0.267 | 89.9
5 | CC(C)(C)OC(=O)N1CCC(c2ccc(C(=O)Nc3ccc4ncc(Cl)n4c3)cc2)CC1 [Example 491, tert-butyl 4-{4-[(3-chloroimidazo[1,2-a]pyridin-6-yl)carbamoyl]phenyl}piperidine-1-carboxylate] | > 10000 | 1.9 | 7830
6 | CC(C)C(=O)N1CC[C@@H](Oc2ccc(C(=O)NCc3ccn4ccnc4c3)cc2)C1 [Example 492, N-(imidazo[1,2-a]pyridin-7-ylmethyl)-4-{[(3R)-1-(2-methylpropanoyl)pyrrolidin-3-yl]oxy}benzamide] | > 10000 | 0.863 | 1270
7 | O=C(NCc1ccn2ccnc2c1)c1ccc(O[C@@H]2CCN(C(=O)c3ccccc3)C2)cc1 [Example 493, 4-{[(3R)-1-benzoylpyrrolidin-3-yl]oxy}-N-(imidazo[1,2-a]pyridin-7-ylmethyl)benzamide] | 1290 | 0.455 | 486
8 | O=C(NCc1ccn2ccnc2c1)c1ccc(O[C@@H]2CCN(C(=O)[C@H]3CCOC3)C2)cc1 [Example 494, N-(imidazo[1,2-a]pyridin-7-ylmethyl)-4-({(3R)-1-[(3S)-tetrahydrofuran-3-ylcarbonyl]pyrrolidin-3-yl}oxy)benzamide] | 7560 | 0.712 | 1220
9 | CC[C@H](C)C(=O)N1CC[C@@H](Oc2ccc(C(=O)NCc3ccn4ccnc4c3)cc2)C1 [Example 495, N-(imidazo[1,2-a]pyridin-7-ylmethyl)-4-({(3R)-1-[(25)-2-methylbutanoyl]pyrrolidin-3-yl}oxy)benzamide] | 1470 | 0.399 | 127
10 | O=C(NCc1ccn2ccnc2c1)Nc1ccc(Oc2ccccc2)cc1 [Example 496, 1-(imidazo[1,2-a]pyridin-7-ylmethyl)-3-(4-phenoxyphenyl)urea] | 199 | 1.14 | 7140
11 | CC(C)Cn1cc(-c2ccc(C(=O)NCc3ccn4ncnc4c3)s2)cn1 [Example 497, 5-[1-(2-methylpropyl)-1H-pyrazol-4-yl]-N-([1,2,4]triazolo[1,5-a]pyridin-7-ylmethyl)thiophene-2-carboxamide] | 24.2 | 2.86 | 742
12 | O=C(NCc1ccn2ccnc2c1)c1ccc(C2CCN(C(=O)c3ccccn3)CC2)cc1 [Example 498, N-(imidazo[1,2-a]pyridin-7-ylmethyl)-4-[1-(pyridin-2-ylcarbonyl)piperidin-4-yl]benzamide] | 309 | 0.169 | 17.9
13 | CC(C)(C)CC(=O)N1CCC(c2ccc(C(=O)NCc3ccn4ccnc4c3)cc2)CC1 [Example 499, 4-[1-(3,3-dimethylbutanoyl)piperidin-4-yl]-N-(imidazo[1,2-a]pyridin-7-ylmethyl)benzamide] | 113 | 0.38 | 2.19
14 | Cc1ccc(C(=O)N2CCC(c3ccc(C(=O)NCc4ccn5ccnc5c4)cc3)CC2)cc1 [Example 500, N-(imidazo[1,2-a]pyridin-7-ylmethyl)-4-[1-(4-methylbenzoyl)piperidin-4-yl]benzamide] | 181 | 0.169 | 21.7
15 | CCC(C)(C)C(=O)N1CCC(c2ccc(C(=O)NCc3ccn4ccnc4c3)cc2)CC1 [Example 501, 4-[1-(2,2-dimethylbutanoyl)piperidin-4-yl]-N-(imidazo[1,2-a]pyridin-7-ylmethyl)benzamide] | 104 | 0.483 | 5.96
16 | O=C(NCc1ccn2ccnc2c1)c1ccc(C2CCN(C(=O)C3CCCCC3)CC2)cc1 [Example 502, 4-[1-(cyclohexylcarbonyl)piperidin-4-yl]-N-(imidazo[1,2-a]pyridin-7-ylmethyl)benzamide] | 169 | 0.385 | 16.5
17 | O=C(NCc1ccn2ccnc2c1)c1ccc(C2CCN(C(=O)c3cccs3)CC2)cc1 [Example 503, N-(imidazo[1,2-a]pyridin-7-ylmethyl)-4-[1-(thiophen-2-ylcarbonyl)piperidin-4-yl]benzamide] | 53.2 | 0.277 | 4.21
18 | O=C(NCc1ccn2ccnc2c1)c1ccc(C2CCN(C(=O)CC(F)(F)F)CC2)cc1 [Example 504, N-(imidazo[1,2-a]pyridin-7-ylmethyl)-4-[1-(3,3,3-trifluoropropanoyl)piperidin-4-yl]benzamide] | 185 | 0.361 | 15.4
19 | CCCC(=O)N1CCC(c2ccc(C(=O)NCc3ccn4ccnc4c3)cc2)CC1 [Example 505, 4-(1-butanoylpiperidin-4-yl)-N-(imidazo[1,2-a]pyridin-7-ylmethyl)benzamide] | 253 | 0.355 | 30.5
20 | O=C(NCc1ccn2ccnc2c1)c1ccc(C2CCN(C(=O)c3ccc(F)cc3F)CC2)cc1 [Example 506, 4-[1-(2,4-difluorobenzoyl)piperidin-4-yl]-N-(imidazo[1,2-a]pyridin-7-ylmethyl)benzamide] | 245 | 0.407 | 18
21 | Cc1ccccc1C(=O)N1CCC(c2ccc(C(=O)NCc3ccn4ccnc4c3)cc2)CC1 [Example 507, N-(imidazo[1,2-a]pyridin-7-ylmethyl)-4-[1-(2-methylbenzoyl)piperidin-4-yl]benzamide] | 121 | 0.359 | 3.2
22 | O=C(NCc1ccn2ccnc2c1)c1ccc(C2CCN(C(=O)c3ccc(F)cc3)CC2)cc1 [Example 508, 4-[1-(4-fluorobenzoyl)piperidin-4-yl]-N-(imidazo[1,2-a]pyridin-7-ylmethyl)benzamide] | 257 | 0.481 | 28.6
23 | CC(C)(C)C(=O)N1CCC(c2ccc(C(=O)NCc3ccn4ccnc4c3)cc2)CC1 [Example 509, 4-[1-(2,2-dimethylpropanoyl)piperidin-4-yl]-N-(imidazo[1,2-a]pyridin-7-ylmethyl)benzamide] | 163 | 0.384 | 7.47
24 | CC/C=C(\C)C(=O)N1CCC(c2ccc(C(=O)NCc3ccn4ccnc4c3)cc2)CC1 [Example 510, N-(imidazo[1,2-a]pyridin-7-ylmethyl)-4-{1-[(2E)-2-methylpent-2-enoyl]piperidin-4-yl}benzamide] | 142 | 0.284 | 12.1
25 | Cn1nccc1C(=O)N1CCC(c2ccc(C(=O)NCc3ccn4ccnc4c3)cc2)CC1 [Example 511, N-(imidazo[1,2-a]pyridin-7-ylmethyl)-4-{1-[(1-methyl-1H-pyrazol-5-yl)carbonyl]piperidin-4-yl}benzamide] | 65.3 | 0.286 | 2.78
26 | CC1(C(=O)N2CCC(c3ccc(C(=O)NCc4ccn5ccnc5c4)cc3)CC2)COC1 [Example 512, N-(imidazo[1,2-a]pyridin-7-ylmethyl)-4-{1-[(3-methyloxetan-3-yl)carbonyl]piperidin-4-yl}benzamide] | 631 | 0.209 | 17.9
27 | O=C(NCc1ccn2ccnc2c1)c1ccc(C2CCN(C(=O)c3ccccc3F)CC2)cc1 [Example 513, 4-[1-(2-fluorobenzoyl)piperidin-4-yl]-N-(imidazo[1,2-a]pyridin-7-ylmethyl)benzamide] | 23.9 | 0.188 | 1.18
28 | N#CC1(C(=O)N2CCC(c3ccc(C(=O)NCc4ccn5ccnc5c4)cc3)CC2)CC1 [Example 514, 4-{1-[(1-cyanocyclopropyl)carbonyl]piperidin-4-yl}-N-(imidazo[1,2-a]pyridin-7-ylmethyl)benzamide] | 368 | 0.249 | 30.8
29 | O=C(NCc1ccn2ccnc2c1)c1ccc(C2CCN(C(=O)C3CCCC3)CC2)cc1 [Example 515, 4-[1-(cyclopentylcarbonyl)piperidin-4-yl]-N-(imidazo[1,2-a]pyridin-7-ylmethyl)benzamide] | 180 | 0.268 | 15.8
